For one data set, the system named is CCD-19Lu cells. Kind of data set: MTT cytotoxicity assay, CCD-19Lu. In kind it is cell-based, human. As to conditions: 72 h incubation, noncancerous fibroblast. The protocol:
Its cytotoxicity was determined in the human HeLa cervical cancer cell line, the drug-sensitive Colo205 and its resistant counterpart, the ABCB1 expressing Colo320 colon adenocarcinoma cancer cell lines, using the colorimetric 3-(4,5-dimethylthiazol-2-yl)-2,5-diphenyltetrazolium bromide (MTT) test. To investigate the selectivity toward cancer cells, the noncancerous fibroblast CCD-19Lu cell line was included.
The tested compound was dissolved in DMSO to prepare a 5 mM stock solution, which was diluted in complete culture medium, to study the effect of compounds on cell growth of human colonic adenocarcinoma cell lines. Doxorubicin was used as the positive control. The cells were treated with a trypsin-versene (EDTA) solution. Cells were adjusted to a density of 1 × 10^4 cells in 100 μL of the appropriate culture medium and were added to each well, with the exception of the medium control wells. Except for the semiadherent Colo205 and Colo320 cell lines, the other adherent cell lines were seeded 24 h prior to the assay. Then, stock solutions were diluted in the appropriate culture medium, and 2-fold serial dilutions of compounds were prepared in 100 μL of the medium, horizontally. […] Cell growth was determined by measuring the optical density (OD) at 540/630 nm with a Multiscan EX ELISA reader (Thermo Labsystems, Cheshire, WA). […]

The target in data set [1] is T1, cathepsin B (exopeptidase activity) (Homo sapiens, UniProt P07858).
T1 construct: made in house; host or cells: E. coli
Nature of the data set: Relative inhibition of cathepsin B exopeptidase activity. In kind it is biochemical. As to conditions: 50 μM; substrate Abz-Gly-Ile-Val-Arg-Ala-Lys-(Dnp)-OH; pH 5.0. The source says:
(§1) Relative inhibition is expressed as a percentage of the decrease in reaction velocity in the presence of an inhibitor, in comparison to the reaction velocity in the absence of an inhibitor. For that purpose, the specific fluorogenic substrates Z-Arg-Arg-7-amido-4-methylcoumarin (Z-Arg-Arg-AMC) and 2-aminobenzoyl (Abz)-Gly-Ile-Val-Arg-Ala-Lys-(Dnp)-OH were used for cathepsin B endopeptidase and exopeptidase activities, respectively, and Z-Phe-Arg-AMC was used for cathepsin L and V activities.
(§2) Human recombinant cathepsin B was expressed in E. coli, recombinant cathepsin V was expressed in Pichia pastoris, and human recombinant cathepsin L was expressed in E. coli, as reported. − For the determination of cathepsin B endopeptidase and exopeptidase activities, 100 mM phosphate buffer (pH 6.0) and 60 mM acetate buffer (pH 5.0) were used, respectively, and for the determination of cathepsin V and L activities, 100 mM acetate buffer (pH 5.5) was used. All buffers contained 0.1% PEG 8000 (Sigma-Aldrich, St. Louis, MO), 5 mM cysteine, and 1.5 mM EDTA. Prior to the assay, the enzymes were activated in the assay buffer for 5 min at 37 °C.
(§3) To determine the effect of inhibitors on enzyme activity, the following substrates were used: Z-Arg-Arg-AMC (final concentration 5 μM, Z-RR-AMC; Bachem, Bubendorf, Switzerland) for cathepsin B endopeptidase activity, Abz-Gly-Ile-Val-Arg-Ala-Lys-(Dnp)-OH (final concentration 1 μM, Abz-GIVRAK-(Dnp)-OH; Bachem) for cathepsin B exopeptidase activity, and Z-Phe-Arg-AMC (final concentration 2 μM, Z-FR-AMC; Bachem) for cathepsin V and L activity. The substrate ([…]) at a final concentration and inhibitor ([…]) at a concentration of 50 μM were added to the wells of a black microplate. The reaction was then initiated by adding 90 μL of activated enzyme (final concentrations: 5 nM cathepsin B for its endopeptidase activity, 0.5 nM cathepsin B for its exopeptidase activity, 2.5 ng/mL for cathepsin V, and 0.02 nM for cathepsin L) in the assay buffer. The formation of fluorescent degradation products during the reaction was continuously monitored at 460 ± 10 nm with excitation at 380 ± 20 nm for Z-Arg-Arg-AMC and Z-Phe-Arg-AMC and at 420 ± 10 nm with excitation at 320 ± 20 nm for Abz-Gly-Ile-Val-Arg-Ala-Lys(Dnp)-OH at 37 °C on a Tecan Infinite M1000 (Mannedorf, Switzerland) spectrofluorometer. All assay mixtures contained 5% (v/v) DMSO. To prevent false-positive inhibition due to the formation of compound aggregates, 0.01% Triton X-100 was used. All measurements were performed in triplicate and repeated twice. The relative inhibition was calculated using the following equation: relative inhibition (%) = 100(1 – v i/v o), where v i and v o designate the reaction velocities in the presence and absence of inhibitor, respectively.

The target of data set [2] is T2, cathepsin B (endopeptidase activity) (Homo sapiens, UniProt P07858).
T2 construct: made in house; host or cells: E. coli
Kind of data set: Relative inhibition of cathepsin B endopeptidase activity. It counts as biochemical. The following applies: 50 μM; substrate Z-Arg-Arg-AMC; pH 6.0.
Text: as §1, §2, §3

The next data set relates to E. coli ATCC 25922. Nature of the data set: Antibacterial MIC assay, E. coli ATCC 25922. It counts as cell-based, Escherichia coli. The following applies: 18 h, visual inspection. How it is done:
The antibacterial effect of the complex was tested against the Gram-negative strain Escherichia coli (E. coli) ATCC 25922, the Gram-positive reference strain Staphylococcus aureus (S. aureus) ATCC 25923, and the methicillin-resistant S. aureus MRSA ATCC 43300 strain. MRSA strains are responsible for several difficult-to-treat hospital-acquired infections.
The following bacterial strains were used in our experiments: Gram-positive S. aureus American Type Culture Collection (ATCC) 25923 as the methicillin-susceptible reference bacterial strain; methicillin-resistant S. aureus ATCC 43300 (MRSA) strain; E. coli ATCC 25922 as a Gram-negative bacterial strain.
MIC values of the complexes were determined in 96-well plates based on the Clinical and Laboratory Standard Institute guidelines (CLSI guidelines). The stock solutions of the compound (dissolved in DMSO at 5 mM concentration) were diluted in 100 μL of Mueller Hinton Broth. Then, 10^–4 dilution of an overnight bacterial culture in 100 μL of medium was added to each well, with the exception of the medium control wells.

A short description of a further data set: Behavior in blood serum. In kind it is physicochemical, human. As to conditions: concentration of 40 μM.
Data set [3] is described as follows: Stability of complex 4 in DMSO followed by 1H NMR. In kind it is physicochemical. How it is done: A Bruker Avance III HD Ascend 500 Plus instrument (Billerica, MA) was used for solution NMR studies. Spectra were recorded with a WATERGATE water suppression pulse scheme in the presence of 10% (v/v) D2O in most cases. DSS internal standard was added to samples to obtain reference peaks.

The values below come from paper PMC12391994, “Synthesis of a fac-Tricarbonylrhenium(I) Complex with Pyrithione, Its Physicochemical Characterization, and Assessment of Biological Effects” (ACS Omega, 2025).

Regarding `N#Cc1ccccc1.[C-]#[O+].[C-]#[O+].[C-]#[O+].[O-]n1ccccc1=S.[Re+]` [complex 4, fac-[Re(CO)3(pth)(benzonitrile)]], half-maximal inhibition with CCD-19Lu cells (IC50) was put at 5.47 ± 0.17 µM. In addition, the “relative inhibition cathepsin B exopeptidase” value in data set [1] was 37.5 ± 2.1%. Moreover, the “relative inhibition cathepsin B endopeptidase” value in data set [2] is listed as 63.6 ± 0.8%. Further, the “MIC E. coli ATCC 25922” value against E. coli ATCC 25922 worked out at 50 µM. For the same compound, in “Behavior in blood serum”, the “behavior in blood serum” value was “precipitation”. For the same compound, the “bidentate pyrithione ligand coordination to rhenium(I)” value in data set [3] (48 h monitoring period, light-exclusion) is reported as “remained coordinated”. The “time for complete replacement of benzonitrile with a solvent molecule” value in data set [3] (light-exclusion conditions, 1H NMR) is recorded as not above 1 h.
